Molecules are shown by their SMILES. “And” between values parts separate entries of the source, which are not always exact repeats. Equal entries are not always repeated.

Common to all, as to format: cell-based, human
In assay [1] the test system is SCC-112 mRNA in LnCap prostate cancer cells. As to the kind of experiment: Northern hybridization of SCC-112 mRNA in androgen-treated LNCaP cells. The method, then:
FIG. 5. Androgen induces the steady state levels of SCC-112 mRNA in prostate cancer cells. LNcap prostate cancer cells were grown in IMEM with 5% FBS. Logarithmically growing cells were switched to medium containing 5% charcoal stripped serum […] before the experiment. Indicated concentrations of synthetic androgen, R1881 (NEN) were added for 48 h. Total RNA was isolated and subjected to Northern hybridization using SCC-112 as probe.
FIG. 6. […] LnCAP cells were grown in IMEM medium containing 5% fetal bovine serum. Medium was replaced with 5% charcoal-stripped serum containing medium for 24 h, followed by addition of indicated concentration of synthetic androgen (R1881) for 48 h. Total RN A was isolated from various treatments and analyzed by northern blotting and hybridization using a radiolabeled SCC-112 cDNA fragment (1568 bp-6744 bp).
(§1) RNA Isolation and Northern Hybridization: MDA-MB 435 cells were synchronized at different cell cycle stages, and total RNA was isolated with Trizol reagent according to the manufacturer's instructions (Invitrogen Life technologies, Inc.). […] The autoradiographs were scanned and bands were quantified using IMAGEQUANT software (Molecular Dynamics, Sunnyvale, Calif.).

Assay [2] concerns SCC-112 mRNA in MDA-MB 435 cells. The assay is described as follows: Northern hybridization of SCC-112 mRNA in nocodazole-arrested (G2/M) MDA-MB 435 cells. The following applies: 100 ng/ml, 16 h, G2/M phase. The method, then: (§2) (C) Expression of SCC-112 mRNA and protein in G2/M phase. Logarithmically growing cells were arrested at G2/M phase using 100 ng/ml of nocodazole for 16 h (+). SCC-112 mRNA (upper) and protein levels (lower) were quantified as above. The SCC-112. mRNA level was ˜2 fold higher during G2/M phase (+) as compared to untreated cells (−). SCC-112 protein level was elevated during G2/M phase (˜5 fold) in nocodazole treated cells (+) as compared to untreated cells (−).
as §1
(§3) Cell Synchronization and Flow Cytometry: Logarithmically growing MDA-MB 435 cells were treated with 4 ug/ml aphidicolin, a DNA polymerase-a inhibitor, for 24 h to synchronize cells at G1/S phase. […] The cell cycle distribution profiles were determined using a Fluorescence Activated Cell Sorter (Becton Dickinson).

Assay [3] concerns SCC-112 protein in MDA-MB 435 cells. The assay is described as follows: Western blot of SCC-112 protein in nocodazole-arrested (G2/M) MDA-MB 435 cells. The following applies: 100 ng/ml, 16 h, G2/M phase. The protocol:
as §2
Western Blot Analysis: The cells were rinsed with ice-cold PBS and scrapped in lysis solution containing Tris (20 mM, pH 8.0), NaCl (150 mM), 1% NP-40 (w/v), 10% glycerol (w/v), 1 mM phenylmethylsulphonyl fluoride (PMSF), aprotinin (20 ug/ml) and leupeptin (20 ug/ml). The cells were lysed for 45 min with vigorous shaking at 4° C. and centrifuged at 12,000×g for 15 min at 4° C. Fifty micrograms of total protein were heat denatured by boiling for 5 min in SDS-PAGE loading buffer. After SDS-PAGE, the proteins were electrophoretically transferred on to PVDF membrane (Millipore). […]
as §3

Consider `C[C@]1(O)CC[C@H]2[C@@H]3CCC4=CC(=O)CCC4=C3C=C[C@@]21C` [R1881], for which, in assay [1] (LNCaP cells, charcoal-stripped serum, 1 nM to 100 nM, 48 h, vs untreated cells), the “induction of steady state level of SCC-112 transcript (~8.0 kb)” value was 4-7 fold and 4- to 7 fold. In addition, the “effect on SCC-112 mRNA expression (in words)” value in assay [1] (LNCap cells, FIG. 5) is on record as “induces SCC-112 mRNA expression”.

As to `COC(=O)Nc1nc2ccc(C(=O)c3cccs3)cc2[nH]1` [nocodazole], the “SCC-112 mRNA level vs untreated cells” value in assay [2] is roughly 2 fold. For the same compound, in assay [3], the “SCC-112 protein level vs untreated cells” value was roughly 5 fold.
